PMC11597202, “Novel Thiazole-Fused [4,5-g] or [5,4-g]Quinazolin-8-ones and Their Quinazoline Analogues: Synthesis and Biological Evaluation” (Pharmaceuticals, 2024)

Assays:
CK-1ε = target: T1, CK-1ε (Homo sapiens, UniProt P49674); assay: ADP-Glo kinase inhibition assay, CK-1ε; assay type: biochemical; conditions: percentage of maximum activity of the DMSO control, mean n = 2, 10 µM ATP, read-out: Residual activity CK-1ε; for remaining activity at 1 µM: 1 μM compound; for remaining activity at 10 µM: 10 μM compound
T1 construct: host or cells: Sf9 insect cells (baculovirus)
T1 sequence (P49674 whole entry): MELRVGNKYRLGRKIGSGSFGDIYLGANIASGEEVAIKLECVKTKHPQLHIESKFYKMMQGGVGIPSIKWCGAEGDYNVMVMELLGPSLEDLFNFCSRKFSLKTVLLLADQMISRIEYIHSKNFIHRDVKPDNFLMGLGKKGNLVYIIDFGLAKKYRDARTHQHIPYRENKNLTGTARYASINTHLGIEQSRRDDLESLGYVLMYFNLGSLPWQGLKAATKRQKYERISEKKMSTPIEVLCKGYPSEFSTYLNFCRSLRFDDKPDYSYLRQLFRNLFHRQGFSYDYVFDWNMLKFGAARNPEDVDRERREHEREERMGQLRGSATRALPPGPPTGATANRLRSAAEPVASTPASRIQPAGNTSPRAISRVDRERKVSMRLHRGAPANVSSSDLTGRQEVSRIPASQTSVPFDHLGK
Experimental: Kinase enzymatic activities were assayed in 384-well plates using the ADP-Glo^TM assay kit (Promega, Madison, WI, USA) according to the recommendations of the manufacturer. This luminescent ADP detection assay was described by Zegzouti and co-workers and provides a homogeneous and high-throughput screening method to measure kinase activity by quantifying the amount of ADP produced during a kinase reaction. Briefly, the reactions were carried out in a final volume of 6 µL for 30 min at 30 °C in an appropriate kinase buffer (10 mM MgCl2, 1 mM EGTA, 1 mM DTT, 25 mM Tris-HCl pH 7.5, 50 µg/mL heparin), with peptide or protein as substrate in the presence of 10 µM ATP. Peptide substrates were obtained from ProteoGenix (Schiltigheim, France) or Sigma for Histone H1, Poly (L-glutamic acid–L-tyrosine) sodium salt, Casein and MBP. After that, 6 µL of ADP-Glo^TM Kinase Reagent was added to stop the kinase reaction. After an incubation time of 50 min at room temperature (rt), 12 µL of Kinase Detection Reagent was added for one hour at rt. The transmitted signal was measured using the Envision (PerkinElmer, Waltham, MA, USA) microplate luminometer and expressed as Relative Light Units (RLUs). Kinase activities are expressed as percentages of remaining kinase activities detected after treatment with 1 or 10 µM of the tested compounds. The maximum kinase activity was measured in the absence of inhibitor but with an equivalent dose of DMSO (solvent of the tested compounds).
3. Kinase inhibition assays
Kinase enzymatic activities were assayed in 384-well plates using the ADP-GloTM assay kit (Promega, Madison, WI) according to the recommendations of the manufacturer. This luminescent ADP detection assay was described by Zegzouti and co-workers and provides a homogeneous and high-throughput screening method to measure kinase activity by quantifying the amount of ADP produced during a kinase reaction. Briefly, the reactions were carried out in a final volume of 6 µl for 30 min at 30°C in appropriate kinase buffer (10 mM MgCl2, 1 mM EGTA, 1 mM DTT, 25 mM Tris-HCl pH 7.5, 50 µg/mL heparin), with peptide or protein as substrate in the presence of 10 µM ATP. Peptide substrates were obtained from ProteoGenix (Schiltigheim, France) or Sigma for Histone H1, Poly (L-glutamic acid – L-tyrosine) sodium salt, Casein and MBP. After that, 6 µL of ADP-GloTM Kinase Reagent was added to stop the kinase reaction. After an incubation time of 50 min at room temperature (rt), 12 µL of Kinase Detection Reagent was added for 1 h at rt. The transmitted signal was measured using the Envision (PerkinElmer, Waltham, MA) microplate luminometer and expressed in Relative Light Unit (RLU). Kinase activities are expressed in percentages of remaining kinase activities detected after treatment with 1 or 10 µM of the tested compounds. The maximal kinase activity is measured in the absence of inhibitor but with an equivalent dose of DMSO (solvent of the tested compounds).
Table. Human protein kinases tested in the panel: CDK9, HASPIN, PIM1, GSK3b, CK1ε, JAK3, CLK1 […]
1 Peptide substrates were obtained from ProteoGenix (Schiltigheim, France) or Sigma for Histone H1, Poly (L-glutamic acid – L-tyrosine) sodium salt, Casein and MBP; 2 “Sp” stands for phosphorylated serine.
Controls inhibitors: To validate each kinase assay, the following model inhibitors were used under the same conditions than the tested compounds: Staurosporine from Streptomyces sp.

[1] = In vitro cytotoxic assay, PC-3; assay type: cell-based; conditions: human, PC-3 cells (prostate cancer cell line); also: 0.1-25 µM tested
Experimental: (§1) Skin normal fibroblastic cells were purchased from Lonza (Basel, Switzerland). […] All culture media were supplemented by 10% of FBS, 1% of penicillin–streptomycin and 2 mM glutamine.
(§2) Chemicals were solubilized in DMSO at a concentration of 10 mM (stock solution) and diluted in culture medium to the desired final concentrations. […] Cells were plated in 96-well plates (4000 cells/well). Twenty-four hours after seeding, the cells were exposed to chemicals. […] Image acquisition and analysis were performed using a Cellomics ArrayScan VTI/HCS Reader (ThermoScientific, Les Ulis, France). The survival percentages were calculated as the percentage of cell number after compound treatment over cell number after DMSO treatment. The relative IC50 values were calculated using the curve fitting XLfit 5.5.0.5 (idbs) integrated in Microsoft Excel as an add-on.
(§3) 4.3.1. Cell culture. Skin normal fibroblastic cells are purchased from Lonza (Basel, Switzerland). Huh7- […]
(§4) from ATCC (American Type Culture Collection). […]
(§5) supplemented by 10% of FBS, 1% of penicillin-streptomycin and 2 mM glutamine.
(§6) 4.3.2. Cytotoxic assay. Chemicals were solubilized in DMSO at a concentration of 10 mM (stock solution) and diluted in culture medium to the desired final concentrations. The dose effect cytotoxic assays (IC50 determination) were performed by increasing the concentrations of each chemical (final well […]
(§7) Cells were plated in 96-well plates
(§8) (4000 cells/well). Twenty-four hours after seeding, cells were exposed to chemicals. After 48h of treatment, cells were washed in PBS and fixed in cooled 90% ethanol/5% acetic acid for 20 min and the […]
(§9) Image acquisition and analysis were performed using a Cellomics ArrayScan VTI/HCS Reader (ThermoScientific). The survival percentages were calculated as the percentage of cell number after compound treatment over cell number after DMSO treatment. The relative IC50 were calculated using the curve fitting XLfit 5.5.0.5 (idbs) integrated in Microsoft Excel as an add-on. The 4 Parameter Logistic Model or Sigmoidal Dose-Response Model describing the sigmoid-shaped response pattern was used (fit = (A+[(B-A)/(1+[(C/x)^D])]) where fit is the response and X is the tested concentration of the compound. The lower asymptote is A (also referred to as the bottom of the curve or lower plateau or the min) and the upper asymptote is B (also referred to as the top of the curve or upper plateau or the max). The slope of the linear part of the curve is described by the factor D. The parameter C is the concentration corresponding to the response midway between A and B. C is called “relative IC50” because it refers to the maximum response obtained by a […]
(§10) The results are represented as the mean ± standard error (SE) calculated from at least three independent experiments.

[2] = In vitro cytotoxic assay, Caco-2; assay type: cell-based; conditions: human, Caco-2 cells (colon cancer cell line); also: 0.1-25 µM tested
Experimental: as §1, §2, §3, §4, §5, §6, §7, §8, §9, §10

Row | Structure (SMILES) | remaining activity at 1 µM (CK-1ε) | remaining activity at 10 µM (CK-1ε) | IC50 at 48 h [1] | IC50 at 48 h [2]
1 | COC(=N)c1nc2ccc3ncn(Cc4ccccc4)c(=O)c3c2s1 [Compound I, methyl 8-benzyl-9-oxo-8,9-dihydrothiazolo[5,4-f]quinazoline-2-carbimidate, reference compound] | 92% | 70% | 20 µM | 12 µM
2 | COC(=N)c1nc2cc3ncn(Cc4ccccc4)c(=O)c3cc2s1 [Compound 6b, Methyl 7-benzyl-8-oxo-7,8-dihydrothiazolo[5,4-g]quinazoline-2-carbimidate] | 111% | 103% | 2 µM | 2 µM
3 | COC(=N)c1nc2c(ccc3c(=O)n(Cc4ccccc4)cnc32)s1 [Compound 6c, Methyl 7-benzyl-6-oxo-6,7-dihydrothiazolo[5,4-h]quinazoline-2-carbimidate] | 112% | 87% | 8 µM | 6 µM
4 | COC(=N)c1nc2cc3ncnc(Nc4ccc(OC)cc4F)c3cc2s1 [Compound 15b, Methyl 8-[(2-fluoro-4-methoxyphenyl)amino]thiazolo[5,4-g]quinazoline-2-carbimidate] | 98% | 108% | – | –
5 | COC(=N)c1nc2cc3c(Nc4ccc(OC)cc4F)ncnc3cc2s1 [Compound 15a, Methyl 8-[(2-fluoro-4-methoxyphenyl)amino]thiazolo[4,5-g]quinazoline-2-carbimidate] | 95% | 72% | – | –
6 | COC(=N)c1nc2cc3c(=O)n(Cc4ccccc4)cnc3cc2s1 [Compound 6a, Methyl 7-benzyl-8-oxo-7,8-dihydrothiazolo[4,5-g]quinazoline-2-carbimidate] | 100% | 69% | 20 µM | 17 µM
7 | COC(=N)c1nc2ccc3ncnc(Nc4ccc(OC)cc4F)c3c2s1 [Compound II, methyl 9-[(2-fluoro-4-methoxyphenyl)amino]thiazolo[5,4-f]quinazoline-2-carbimidate, reference compound] | – | – | 4 µM | 3 µM
8 | COC(=N)c1nc2ccc3c(=O)n(Cc4ccccc4)cnc3c2s1 [Compound 6d, Methyl 7-benzyl-6-oxo-6,7-dihydrothiazolo[4,5-h]quinazoline-2-carbimidate] | 92% | 98% | 10 µM | 10 µM
